# Test results published in patent publication US20030013764A1, “Use for a pyruvate dehydrogenase activator for the treatment of ischaemia in limbs” (priority 1995, published 2003).
# Tests used:
# [1] = tested on: patients with class III heart failure; conditions: human, in vivo; cited from earlier work
# angina patients = conditions: cited from earlier work
# volunteers = conditions: cited from earlier work
# gracilis muscle = experiment: Muscle metabolites in gracilis muscle biopsies of anaesthetised dogs; type: in vivo, Beagle dogs; set-up: Lactate / Ac.carn. (acetyl carnitine) / Free carnitine: unit not given here; conditions: for Ac.carn. (acetyl carnitine) / Free carnitine / Lactate / PCr (phosphocreatine): DCA treated
# Method: Animals were divided into DCA treated and vehicle (isotonic saline) treated groups. DCA or vehicle was given after completion of the surgery by a constant infusion. 45 minutes later the contraction was started. Muscle fatigue was measured in both normal and flow limited muscles. Arterial blood samples were taken from the brachial artery and venous blood samples were taken from each gracilis muscle at rest, during contraction and following recovery. The contraction period was 20 minutes of stimulation of 3 Hz. Blood samples (0.4 ml) being taken for blood gas analysis and analysed immediately. Parameters recorded were pH, pCO2. pO2. oxygen saturation and total Haemoglobin. Further samples (1.0 ml) were taken for analysis of lactate, glucose and non esterified fatty acid (NEFA) concentration.
# Following resting blood samples and after drug/vehicle infusion a resting muscle biopsy (6 mm diameter Bergstrom needle. Stille, Sweden and 6 mm diameter Allendale needle, Edinburgh, Scotland), was taken from each muscle. After 20 minutes of stimulation the muscle was then freeze clamped, while still being stimulated, and a thin portion of muscle was excised and frozen in liquid nitrogen (The whole process took less than 6 seconds with the top layer of muscle being frozen within 1 second). The muscle samples were then stored in liquid nitrogen before a portion was freeze dried and analysed.
# The muscle sample was divided into two portions, one for analysis of ATP, phosphocreatine (PCr), creatine (Cr) and intramuscular lactate (Harris. R et al., Scand. Journal Clin Lab Invest.. 33,109-120, 1974). The other portion of muscle was stored wet in liquid nitrogen. Briefly, the first portion of muscle was freeze dried, dissected free of visible connective tissue and blood and then powdered and was extracted in ice cold perchloric acid (0.5M) and neutralised with potassium bicarbonate (2.2M). Glycogen content was assayed using the method described by Harris et al. 1974 (see above).
# Acetylcarnitine, free carnitine were assessed, in the freeze dried extract, by the method described by Cederblad et al; Anal. Biochem., 185, (1990), 274-278. PDH activity (rest & exercise, active and total) from a sample of wet tissue using the method of Constantin-Teodosiu D et al.. “A sensitive radioisotopic assay of pyruvate dehydrogenase complex in human muscle tissue”. Anal. Biochem.. Volume 198, p347-351. 1991. This method is also described by Dumitru Constantin-Teodosiu. Doctoral Thesis “Regulation of pyruvate dehydrgenase complex activity and acetyl group formation in skeletal muscle during exercise”. Stockholm 1992. from the Department of Clinical Chemistry, Karolinska Institute. Huddinge University Hospital. S-141 86 Huddinge Sweden.
# [2] = tested on: contracting skeletal muscle of anaesthetised dogs; experiment: Muscle fatigue in contracting gracilis muscle of anaesthetised dogs; type: in vivo, Beagle dogs; conditions: following treatment with DCA (300 mg.kg−1 as sodium salt, infusion 45 min before contraction); 20 min stimulation at 3 Hz; fatigue=(peak tension—end tension)/peak tension
# Method: The invention will now be further described by reference to the accompanying, non-limiting, experimental methods. In the following expermimental methods we have used the PDH kinase inhibitor dichloroacetate to determine if inhibitors of PDH kinase can reduce the rate of fatigue in contracting skeletal muscle of anaesthetised dogs which has blood flow limited to the same extent as patients with intermittent claudication. Suitable doses of DCA include these in the range 30 to 300 mg.kg^−1. In the experimental methods which follow DCA was administered (at a dose of 300 mg.kg^−1) as the sodium salt of dichloroacetic acid.
# Female Alderley Park Beagle dogs (12-18 kg) were pre-medicated with morphine (10 mg, i.m.) 30 minutes prior to induction of anaesthesia with sodium pentobarbitone (45 mg kg-1 i.v., Sagatal.). […] Rectal temperature was constantly monitored and maintained (range 36.2° C.-38.6° C.) with a homeothermic heating blanket (Harvard Instruments, Edenbridge. Kent. UK).
# The left external jugular vein was cannulated for continuous administration of anaesthetic (sodium pentobarbitone 12 mg/ml at a rate of5 -6 ml/hour) using an infusion pump (injectomat S. Fresenius. Villiers. France). […] All pressures were measured using strain gauge manometers (PDCR 75. Druck Ltd. Barendeecht. Netherlands) attached to d.c. bridle amplifiers (Lectromed. MT8P. St. Peter. Jersey). […]
# normal mice = conditions: cited from earlier work
# [3] = angina patients undergoing catheterisation
# [4] = Normal flow muscle after 20 min stimulation
# [5] = Resricted flow muscle after 20 min stimulation
compound,measurement,setting,value
"O=C(O)C(Cl)Cl [DCA, dichloroacetic acid]",effects in patients with class III heart failure,[1],Beneficial effects
same,changes in heart rate or left ventricular inotropic state (LV dp/dtmax.),angina patients; [3],absence of changes
same,increase in stroke volume,angina patients; [3],13%
same,Myocardial efficiency,"angina patients; angina patients, increased from 24%",32%
same,reduction of lactate production,volunteers; volunteers during maximal and 50% maximal workload,up to 30%
same,increase in maximal work capacity,volunteers; volunteers,10%
same,Changes in Pcr,gracilis muscle; DCA treated versus control,reduced
same,Changes in lactate,gracilis muscle; DCA treated versus control,reduced
same,Ac.carn. (acetyl carnitine),gracilis muscle; [4],9.6 ± 3.2
same,Free carnitine,gracilis muscle; [4],15.5 ± 2.5
same,Lactate,gracilis muscle; [4],5.4 ± 1.6
same,PCr (phosphocreatine),gracilis muscle; [4],44.7 ± 3.2
same,Ac.carn. (acetyl carnitine),gracilis muscle; [5],16.9 ± 2.6
same,Free carnitine,gracilis muscle; [5],9.6 ± 2.2
same,Lactate,gracilis muscle; [5],18.1 ± 4.0
same,PCr (phosphocreatine),gracilis muscle; [5],38.9 ± 3.0
same,Ac.carn. (acetyl carnitine),gracilis muscle; Resting muscle,19.6 ± 1.0
same,Free carnitine,gracilis muscle; Resting muscle,5.4 ± 1.6
same,Lactate,gracilis muscle; Resting muscle,5.7 ± 1.4
same,PCr (phosphocreatine),gracilis muscle; Resting muscle,55.1 ± 2.5
same,Acetyl group availability,"gracilis muscle; at rest and during contraction (RF muscle), DCA treated group versus control",higher
same,muscle fatigue,[2],25.0%
same,increase in treadmill exercise duration,normal mice,20%
same,oxidation of lactate,normal mice,increased
